From paper PMC10716126, “Enzyme mechanistic studies of NMA1982, a protein tyrosine phosphatase and potential virulence factor in Neisseria meningitidis” (Scientific Reports, 2023)

Tests used:
NMA1982 [1] = molecular target: T1, NMA1982 (Neisseria meningitidis, UniProt A1KVD0)
T1 construct: gene NMC1647

NMA1982 [2] = molecular target: T1, NMA1982; remark: listed apart in the source

T1 sequence (A1KVD0 entry or part of it): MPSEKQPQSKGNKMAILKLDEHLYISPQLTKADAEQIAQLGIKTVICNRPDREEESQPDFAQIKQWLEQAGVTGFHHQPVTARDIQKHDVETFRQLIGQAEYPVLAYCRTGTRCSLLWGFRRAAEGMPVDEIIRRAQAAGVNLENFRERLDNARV

| SMILES | Km (NMA1982 [1]) [µM] | IC50 (NMA1982 [2]) [µM] |
| --- | --- | --- |
| Cc1cc(=O)oc2c(F)c(OP(=O)(O)O)c(F)cc12 [DiFMUP] | 35 | – |
| [O]=[V]([OH])([OH])[OH] [sodium orthovanadate] | – | 161 |
